Data published in ChEMBL document CHEMBL1127662, “3-Alkoxybenzo[b]thiophene-2-carboxamides as inhibitors of neutrophil-endothelial cell adhesion” (J Med Chem, 1994).

tested on: HUVEC; test: (§1) Tested for adhesion of neutrophils to human umbilical vein endothelial cell at the dose of 100 uM; type: functional

Compound | inhibition at 100 µM [%]
CCNC(=O)c1sc2ccc(OC)cc2c1OC(C)C | 64
COc1ccc2sc(C(N)=O)c(Oc3ccccc3)c2c1 | 59
CC(C)Oc1c(C(N)=O)sc2ccc(OCc3ccccc3)cc12 | < 4
CC(C)Oc1c(C(N)=O)sc2ccc(Cl)cc12 | 72
CC(C)Oc1c(C(N)=O)sc2ccccc12 | 60
CC(C)Oc1c(C(N)=O)sc2ccc(N)cc12 | 49
Cc1ccc2sc(C(N)=O)c(OC(C)C)c2c1 | 61
COc1ccc2sc(C(N)=O)c(OCc3ccccc3)c2c1 | 57
COc1ccc2sc(C(N)=O)c(OC)c2c1 | 60
COc1cccc2c(OC(C)C)c(C(N)=O)sc12 | 35
COc1ccc2sc(C(N)=O)c(OC(C)(C)C)c2c1 | 97
COc1ccc2sc(C(=O)Nc3ccccc3)c(OC(C)C)c2c1 | 12
COc1ccc2c(OC(C)C)c(C(N)=O)sc2c1 | 24

tested on: HUVEC; test: as §1; type: functional, cell-based

Compound | Inhibition [%] | IC50 [µM]
COc1ccc2c(c1)C(OC(C)C)=C(C(N)=O)S2(=O)=O | < 4 | –
CC(C)Oc1c(C(N)=O)sc2ccc(O)cc12 | – | 6.4
CC(C)Oc1c(C(N)=O)sc2ccc([N+](=O)[O-])cc12 | 40 | –
COc1ccc2c(c1)c(OC(C)C)c(C(N)=O)[s+]2[O-] (stereo not drawn) | – | 8.7
CNC(=O)c1sc2ccc(OC)cc2c1OC(C)C | – | 15
